Laboratory results from PMC11052071, “Novel JAK Inhibitors to Reduce Graft-Versus-Host Disease after Allogeneic Hematopoietic Cell Transplantation in a Preclinical Mouse Model” (Molecules, 2024).
Where two headings read alike, the source gives them in different places.

Experiments:
[1] = target: JAK2 (Homo sapiens, UniProt O60674); experiment: Z'-LYTE enzyme activity assay (SelectScreen Kinase Profiling), JAK2
[2] = target: T1, JAK3 (Homo sapiens, UniProt P52333); experiment: Z'-LYTE enzyme activity assay (SelectScreen Kinase Profiling), JAK3
T1 sequence (P52333 1-1124): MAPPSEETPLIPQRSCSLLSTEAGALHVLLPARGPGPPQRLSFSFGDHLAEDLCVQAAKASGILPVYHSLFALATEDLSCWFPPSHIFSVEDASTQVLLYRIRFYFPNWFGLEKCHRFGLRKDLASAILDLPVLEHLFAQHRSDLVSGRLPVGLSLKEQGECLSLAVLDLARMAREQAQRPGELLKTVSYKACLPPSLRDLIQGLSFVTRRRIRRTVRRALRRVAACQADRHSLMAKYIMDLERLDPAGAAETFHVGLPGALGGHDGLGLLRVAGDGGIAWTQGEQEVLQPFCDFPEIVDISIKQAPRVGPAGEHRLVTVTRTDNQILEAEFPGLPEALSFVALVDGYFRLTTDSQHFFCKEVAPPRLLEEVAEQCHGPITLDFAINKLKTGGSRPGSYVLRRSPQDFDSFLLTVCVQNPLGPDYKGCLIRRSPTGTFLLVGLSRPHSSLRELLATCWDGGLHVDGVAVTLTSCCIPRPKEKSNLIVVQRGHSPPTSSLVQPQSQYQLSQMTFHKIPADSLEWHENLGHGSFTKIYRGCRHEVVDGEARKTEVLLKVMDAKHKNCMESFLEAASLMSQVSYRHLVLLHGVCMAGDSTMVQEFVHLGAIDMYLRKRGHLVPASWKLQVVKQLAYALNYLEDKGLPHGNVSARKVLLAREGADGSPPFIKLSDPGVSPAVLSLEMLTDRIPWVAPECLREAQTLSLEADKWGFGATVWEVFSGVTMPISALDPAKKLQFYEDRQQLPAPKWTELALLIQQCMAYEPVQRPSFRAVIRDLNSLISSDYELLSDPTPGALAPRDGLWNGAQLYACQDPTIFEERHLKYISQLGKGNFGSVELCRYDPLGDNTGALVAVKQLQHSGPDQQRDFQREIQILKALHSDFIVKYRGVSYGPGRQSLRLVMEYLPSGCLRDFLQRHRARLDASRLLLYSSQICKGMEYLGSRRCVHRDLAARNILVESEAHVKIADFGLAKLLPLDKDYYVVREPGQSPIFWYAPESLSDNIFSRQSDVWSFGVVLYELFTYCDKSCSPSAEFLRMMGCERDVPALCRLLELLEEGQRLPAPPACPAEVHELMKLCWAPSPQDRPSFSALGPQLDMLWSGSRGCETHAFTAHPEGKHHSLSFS

[3] = target: TYK2 (Homo sapiens, UniProt P29597); experiment: Z'-LYTE enzyme activity assay (SelectScreen Kinase Profiling), TYK2
TYK2, sequence (P29597 whole entry): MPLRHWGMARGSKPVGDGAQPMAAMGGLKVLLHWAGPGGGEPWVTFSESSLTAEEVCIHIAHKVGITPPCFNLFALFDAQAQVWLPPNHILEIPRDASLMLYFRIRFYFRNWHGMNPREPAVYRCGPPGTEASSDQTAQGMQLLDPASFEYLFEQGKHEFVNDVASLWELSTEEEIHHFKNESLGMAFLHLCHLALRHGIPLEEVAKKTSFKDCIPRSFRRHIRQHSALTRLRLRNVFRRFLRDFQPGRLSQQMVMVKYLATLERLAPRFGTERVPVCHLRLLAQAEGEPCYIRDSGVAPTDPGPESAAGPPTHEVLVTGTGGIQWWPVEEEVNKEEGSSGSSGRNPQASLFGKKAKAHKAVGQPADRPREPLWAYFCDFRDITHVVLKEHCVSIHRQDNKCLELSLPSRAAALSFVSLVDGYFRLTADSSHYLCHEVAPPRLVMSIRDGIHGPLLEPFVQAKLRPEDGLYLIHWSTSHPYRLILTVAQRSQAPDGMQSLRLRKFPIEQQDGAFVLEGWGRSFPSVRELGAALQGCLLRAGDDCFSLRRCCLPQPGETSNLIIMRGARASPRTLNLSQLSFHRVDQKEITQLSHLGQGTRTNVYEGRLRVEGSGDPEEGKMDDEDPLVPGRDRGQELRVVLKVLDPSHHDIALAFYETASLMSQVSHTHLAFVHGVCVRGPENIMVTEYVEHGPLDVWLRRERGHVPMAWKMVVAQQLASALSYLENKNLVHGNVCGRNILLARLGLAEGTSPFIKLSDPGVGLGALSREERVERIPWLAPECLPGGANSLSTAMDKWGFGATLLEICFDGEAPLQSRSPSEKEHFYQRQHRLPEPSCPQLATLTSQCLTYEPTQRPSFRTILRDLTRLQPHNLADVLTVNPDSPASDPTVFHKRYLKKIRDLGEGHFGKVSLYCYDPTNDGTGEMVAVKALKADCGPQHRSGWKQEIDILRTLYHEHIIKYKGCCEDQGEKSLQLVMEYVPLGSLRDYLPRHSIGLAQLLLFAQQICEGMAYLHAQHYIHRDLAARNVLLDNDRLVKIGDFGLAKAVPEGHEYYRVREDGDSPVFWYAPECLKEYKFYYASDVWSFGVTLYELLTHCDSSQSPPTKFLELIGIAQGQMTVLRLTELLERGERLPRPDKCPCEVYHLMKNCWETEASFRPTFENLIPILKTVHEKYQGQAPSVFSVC

[4] = Mouse PK after subcutaneous injection; format: in vivo; details: 2 mg/kg s.c., CD-1 mice, time points up to 6 h; WU derivatives compared to BARI
[5] = Human liver microsome (HLM) assay; format: in vitro ADME; details: incubations with human liver microsomes
Experimental: Subsequently, we assessed the in vitro metabolic stability and clearance values of WU derivatives in an HLM assay.
(A,B) Mouse PK following subcutaneous administration of WU derivatives (2 mg/kg) to CD-1 mice. […] All error bars are represented as mean ± standard deviation.
Mouse PK and in vitro human liver microsome (HLM) assay studies were conducted by Charles River Laboratories, Inc. (Wilmington, MA, USA). Briefly, male CD-1 mice were used in mouse PK studies. […] At 24 h, no drug levels were detected in plasma for any of the compounds tested. In addition, WU derivatives were evaluated in an in vitro HLM assay to determine the intrinsic human liver microsomal clearance values of compounds in incubations with human liver microsomes.

[6] = system: GvHD; experiment: Preclinical mouse model of allo-HCT (GvHD); format: in vivo, Balb/c recipient mice
Excerpt: To determine the potential of WU4 and WU8 in preventing GvHD, we performed allo-HCT in which 5 × 10^6 T cell-depleted bone marrow (TCD-BM; CD45.1+) and 5 × 10^5 splenic pan T cells (CD45.2+) obtained from B6 mice were transplanted into lethally irradiated (900 cGy on day −1) Balb/c allogeneic recipient mice on day 0. […]. […] Among monocyte subsets, we only considered classical (LyG6^−CD11b^+Ly6C^high) and intermediate monocytes (LyG6^−CD11b^+Ly6C^middle) as APCs, excluding non-classical monocytes (LyG6^−CD11b^+Ly6C^low) due to their anti-inflammatory function, which downregulates antigen presentation during inflammation. […]
Figure 5 In vivo administration of WU4 and WU8 reduces GvHD by increasing % of Tregs while suppressing % of APCs and costimulatory proteins on APCs after allo-HCT. Allo-HCT was performed as follows: 5 × 10^6 TCD-BM (CD45.1+) and 5 × 10^5 splenic T cells (CD45.2+) obtained from B6 mice were transplanted on day 0 into lethally irradiated (900 cGy on day −1) Balb/c allogeneic recipient mice. TCD-BM-only group served as a no-GvHD control. […] (A,B) The mice were monitored for survival and GvHD signs. (C–F) Whole splenocytes were analyzed for % of Tregs, recipient/BM-derived APCs, and CD80-expressing APCs on day 6 after allo-HCT. LyG6^−CD11b^+Ly6C^high and LyG6^−CD11b^+Ly6C^middle served as classical and intermediate monocyte subsets. NT: neutrophils. * p < 0.05, ** p < 0.01, and *** p < 0.001. All error bars are represented as mean ± standard deviation.
Allo-HCT was performed as previously described. Briefly, BALB/c mice were used as recipients and received 9 Gy total body irradiation on day −1, then were transplanted with 5 × 10^6 T cell-depleted bone marrow (TCD-BM) cells from B6 (CD45.1+) mice along with 0.5 × 10^6 splenic T cells from B6 (CD45.2+) mice on day 0. Mouse TCD-BM and splenic T cells were prepared using an EasySep mouse CD90.2 positive selection kit II and an EasySep mouse T cell isolation kit ([…] Technologies, Cambridge, MA, USA), respectively.
GvHD clinical scores were assessed twice per week by a scoring system incorporating five clinical criteria: weight loss (diarrhea scored 1 regardless of weight change), posture (hunching), mobility, fur texture, and skin integrity, as previously described. Individual mice were scored from 0 to 2 for each criterion and were sacrificed with GvHD scores of 6 or above, following our approved animal protocol.
T cells from in vitro primary murine T cell culture, fresh peripheral blood, or whole splenocytes were analyzed according to cell surface and intracellular markers. Surface markers were directly stained with flow antibodies for 20 min at 4 °C. For intracellular staining (FOXP3 and T-bet), cells were fixed and permeabilized after surface staining using appropriate buffers (One-step intracellular nuclear protein staining protocol, eBioscience, San Diego, CA, USA) and stained with flow antibodies. The antibodies used for flow cytometric analyses for mouse cells were as follows: FOXP3, T-BET, and CD183 (eBioscience, San Diego, CA, USA); CD3, H2-Kb, H2-Kd, CD4, B220, CD11b, CD11c, Ly6C, and DEC205 (BioLegend, San Diego, CA); and CD8, CD45.2, CD80, and Ly6G (BD Pharmingen, San Jose, CA, USA). All cells were run on a ZE5 Cell Analyzer (BD Biosciences, Mountain View, CA, USA) or Attune® NxT (Thermofisher Scientific, Waltham, MA, USA) and analyzed with the FlowJo software, version 10.9.0 (FlowJo LLC., Ashland, OR, USA).

[7] = human; cited from earlier work
[8] = cited from earlier work; for terminal plasma half-life: human
[9] = system: PKN1; details: murine and human whole-kinome analyses; cited from earlier work
[10] = target: JAK1 (Homo sapiens, UniProt P23458); experiment: Z'-LYTE enzyme activity assay (SelectScreen Kinase Profiling), JAK1
JAK1, sequence (P23458 whole entry): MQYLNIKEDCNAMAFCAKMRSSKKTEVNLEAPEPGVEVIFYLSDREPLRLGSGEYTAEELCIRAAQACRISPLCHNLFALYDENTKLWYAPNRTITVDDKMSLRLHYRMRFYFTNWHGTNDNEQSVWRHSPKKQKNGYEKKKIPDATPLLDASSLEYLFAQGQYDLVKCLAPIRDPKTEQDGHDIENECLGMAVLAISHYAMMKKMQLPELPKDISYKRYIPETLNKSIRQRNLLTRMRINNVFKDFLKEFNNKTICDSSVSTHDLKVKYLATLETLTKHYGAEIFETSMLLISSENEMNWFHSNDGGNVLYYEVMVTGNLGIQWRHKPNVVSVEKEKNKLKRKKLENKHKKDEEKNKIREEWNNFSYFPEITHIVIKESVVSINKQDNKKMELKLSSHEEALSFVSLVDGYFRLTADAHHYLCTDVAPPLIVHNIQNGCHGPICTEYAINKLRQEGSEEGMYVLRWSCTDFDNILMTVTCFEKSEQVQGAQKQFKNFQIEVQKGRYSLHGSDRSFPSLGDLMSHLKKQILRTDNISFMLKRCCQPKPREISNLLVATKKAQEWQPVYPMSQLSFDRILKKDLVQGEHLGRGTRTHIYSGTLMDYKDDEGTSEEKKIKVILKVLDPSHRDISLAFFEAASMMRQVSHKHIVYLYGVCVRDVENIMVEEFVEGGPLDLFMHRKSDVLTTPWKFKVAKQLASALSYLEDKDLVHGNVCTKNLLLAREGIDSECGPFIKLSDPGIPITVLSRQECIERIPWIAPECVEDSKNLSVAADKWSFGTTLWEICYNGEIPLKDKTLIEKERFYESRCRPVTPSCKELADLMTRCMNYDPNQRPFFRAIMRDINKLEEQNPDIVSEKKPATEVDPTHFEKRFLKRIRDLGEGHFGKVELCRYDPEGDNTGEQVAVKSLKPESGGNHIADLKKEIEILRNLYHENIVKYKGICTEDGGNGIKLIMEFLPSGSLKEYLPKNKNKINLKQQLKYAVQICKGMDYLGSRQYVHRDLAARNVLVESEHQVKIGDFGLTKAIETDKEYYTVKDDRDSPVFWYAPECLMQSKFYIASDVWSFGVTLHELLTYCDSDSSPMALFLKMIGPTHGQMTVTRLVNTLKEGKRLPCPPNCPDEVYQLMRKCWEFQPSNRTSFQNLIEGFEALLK

[11] = dose not given, vs vehicle control
[12] = 4 mg/kg s.c. once daily for 3 weeks from day 3, vs vehicle control
[13] = 20 mg/kg s.c. once daily for 3 weeks from day 3, vs vehicle control

JAK2, sequence (O60674 whole entry): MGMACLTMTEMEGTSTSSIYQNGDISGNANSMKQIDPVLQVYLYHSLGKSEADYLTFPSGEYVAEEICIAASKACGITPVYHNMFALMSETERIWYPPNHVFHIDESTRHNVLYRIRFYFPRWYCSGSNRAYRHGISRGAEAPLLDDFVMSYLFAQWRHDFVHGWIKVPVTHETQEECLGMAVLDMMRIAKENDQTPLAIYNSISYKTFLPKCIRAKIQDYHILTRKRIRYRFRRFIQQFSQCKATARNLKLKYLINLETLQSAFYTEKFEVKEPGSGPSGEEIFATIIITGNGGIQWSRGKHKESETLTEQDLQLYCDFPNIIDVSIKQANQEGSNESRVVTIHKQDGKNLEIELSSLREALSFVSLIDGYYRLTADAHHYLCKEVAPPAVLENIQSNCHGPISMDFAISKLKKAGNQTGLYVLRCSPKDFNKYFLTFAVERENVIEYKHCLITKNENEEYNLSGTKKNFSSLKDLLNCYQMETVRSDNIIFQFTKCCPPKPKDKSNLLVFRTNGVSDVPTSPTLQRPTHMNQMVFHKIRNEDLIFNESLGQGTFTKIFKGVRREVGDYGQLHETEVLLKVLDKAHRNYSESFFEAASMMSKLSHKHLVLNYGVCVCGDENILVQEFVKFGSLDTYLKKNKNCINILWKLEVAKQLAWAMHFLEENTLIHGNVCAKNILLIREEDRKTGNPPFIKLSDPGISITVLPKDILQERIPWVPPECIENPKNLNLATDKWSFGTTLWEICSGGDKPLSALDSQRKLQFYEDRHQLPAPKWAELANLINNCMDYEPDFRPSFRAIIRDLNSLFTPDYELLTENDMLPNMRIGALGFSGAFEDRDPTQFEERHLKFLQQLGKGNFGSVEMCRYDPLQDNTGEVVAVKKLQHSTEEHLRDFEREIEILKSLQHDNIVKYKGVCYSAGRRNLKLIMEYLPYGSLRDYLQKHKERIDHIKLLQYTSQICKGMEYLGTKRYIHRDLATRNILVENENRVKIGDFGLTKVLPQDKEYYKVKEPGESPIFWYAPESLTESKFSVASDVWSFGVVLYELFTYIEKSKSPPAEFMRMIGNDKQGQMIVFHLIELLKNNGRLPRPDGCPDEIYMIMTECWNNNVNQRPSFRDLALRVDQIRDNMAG

Row | IC50 ([1]; IC50 JAK2, ATP at app. Km) [µM] | IC50 ([2]; IC50 JAK3, ATP at app. Km) [µM] | IC50 ([3]; IC50 TYK2, ATP at app. Km) [µM] | Compound | IC50 ([1]; IC50 JAK2, ATP at 1 mM) [µM] | IC50 ([2]; IC50 JAK3, ATP at 1 mM) [µM] | IC50 ([3]; IC50 TYK2, ATP at 1 mM) [µM] | other results
1 | 0.0351 | 0.0362 | 0.578 | CCS(=O)(=O)N1CC2(CCC2(CC#N)n2cc(-c3ncnc4[nH]ccc34)cn2)C1 (stereo not drawn) [WU3] |  |  |  | 
2 | 0.00822 | 0.0608 | 0.0294 | CCS(=O)(=O)N1CC2(C1)CC(CC#N)(n1cc(-c3ncnc4[nH]ccc34)cn1)C2 [WU1] |  |  |  | 
3 | 0.000867 | 0.0123 | 0.0121 | CCS(=O)(=O)N1CCC2(CC1)CCC(CC#N)(n1cc(-c3ncnc4[nH]ccc34)cn1)CC2 [WU7] | 0.0138 | 0.423 | 0.275 | plasma drug concentration (mouse PK) [4]: significant reduction in plasma concentration at 2 h after injection; in vitro metabolic stability in HLM [5]: diminished HLM metabolic stability
4 | 0.0542 | 0.418 | 0.574 | CCS(=O)(=O)N1CCC12CC(CC#N)(n1cc(-c3ncnc4[nH]ccc34)cn1)C2 (stereo not drawn) [WU2] |  |  |  | 
5 |  |  |  | N#CC[C@H](C1CCCC1)n1cc(-c2ncnc3[nH]ccc23)cn1 [RUX, Ruxolitinib] |  |  |  | plasma protein binding [7]: 97%; metabolism (extent) ([8]; RUX mostly in the liver via CYP(3A4)): > 99%; terminal plasma half-life ([8]; in vivo): ~ 2 h; inhibition of off target PKN1 [9]: not by RUX
6 | 0.000406 | 0.0104 | 0.00224 | N#CCC1(n2cc(-c3ncnc4[nH]ccc34)cn2)CS(=O)(=O)C1 [WU9] | 0.00967 | 0.501 | 0.0347 | 

Row | Compound | IC50 ([1]; IC50 JAK2, ATP at app. Km) [µM] | IC50 ([2]; IC50 JAK3, ATP at app. Km) [µM] | IC50 ([3]; IC50 TYK2, ATP at app. Km) [µM] | IC50 ([1]; IC50 JAK2, ATP at 1 mM) [µM] | IC50 ([2]; IC50 JAK3, ATP at 1 mM) [µM] | IC50 ([3]; IC50 TYK2, ATP at 1 mM) [µM] | other results
7 | CS(=O)(=O)C1CC(CC#N)(n2cc(-c3ncnc4[nH]ccc34)cn2)C1 (stereo not drawn) [WU10] | 0.00037 | 0.013 | 0.00456 | 0.00611 | 0.496 | 0.108 | % of Tregs in the spleens ([6]; dose not given, day 6 after allo-HCT, vs vehicle control): significantly increased the % of Tregs; clinical GvHD scores [6, 11]: reduced GvHD; overall survival [6, 11]: trend towards increased overall survival; blood cell recovery (lymphocytes and white blood cells) ([6]; dose not given, whole blood, day 27 after allo-HCT): trend towards improvement in blood cell recovery
8 | CCS(=O)(=O)N1CC(CC#N)(n2cc(-c3ncnc4[nH]ccc34)cn2)C1 [BARI, baricitinib, reference compound] |  |  | 0.00221 |  |  | 0.0423 | clinical GvHD scores [6, 12]: less clinical GvHD scores; overall survival [6, 12]: significantly improved survival rate; clinical GvHD scores [6, 13]: less clinical GvHD scores; overall survival [6, 13]: significantly improved survival rate; plasma protein binding [7]: 50%; terminal plasma half-life ([8]; in vivo): ~ 8.5 h; metabolism (extent) ([8]; in vivo): very little metabolism
9 | CC(C)(C)NS(=O)(=O)NC1CC2(C1)CC(CC#N)(n1cc(-c3ncnc4[nH]ccc34)cn1)C2 (stereo not drawn) [WU5] | 0.00045 | 0.0112 | 0.00311 | 0.00988 | 0.623 | 0.0589 | % of donor BM-derived B and T cells in the peripheral blood ([6]; dose not given, day 27 after allo-HCT, vs vehicle control): increased the % of donor BM-derived B and T cells; clinical GvHD scores [6, 11]: less clinical GvHD scores; overall survival [6, 11]: significantly improved overall survival; IC50 ([10]; IC50 JAK1, ATP at 1 mM): 0.0082 µM; IC50 ([10]; IC50 JAK1, ATP at app. Km): 0.00147 µM
